From article PMC9400670, “Establishing the selective phospholipid membrane coordination, permeation and lysis properties for a series of ‘druggable’ supramolecular self-associating antimicrobial amphiphiles” (Chemical Science, 2022)

Test system: human intestinal Caco-2 cells
Assay: Caco-2 permeability assay
Assay type: in vitro ADME
Method: Section 4: DMPK Methods and Further Discussion […]
Caco-2 Permeability studies: The permeability assay for SSA 1-6 and 10 was performed at Cyprotex Discovery Limited (Macclesfield, UK) and analysed at Cancer Research Horizons. SSA 1-6 and 10 were incubated at a final concentration of 10 uM with human intestinal Caco-2 cells at 37°C, 5% CO2 with a relative humidity of 95%. After 120 minutes the apical compartment inserts and the companion plates were separated, and the apical and basolateral samples were transferred. Incubations were conducted in duplicate and the fluorescent membrane integrity marker; Lucifer Yellow was co-incubated with the SSA compounds at the start of the assay. Compounds of known permeability were used as controls and were within acceptance criteria. Further processing is described in:
Sample preparation and liquid chromatography-mass spectrometry analysis.
Sample preparation and liquid chromatography-mass spectrometry analysis: All samples were centrifuged at 3500 rpm at 4°C for 10 min to precipitate protein and enable sampling of supernatant prior to appropriate dilution for liquid chromatography-mass spectrometry (LC-MS/MS analysis). […]
(1.5 µm, 50 x 2.1 mm) at a temperature of 40°C and a binary mobile phase gradient at a flow rate of […]
0.4 mL/min. […]
For the purpose of apparent permeability determination, samples were analysed using a Waters I-Class ultra-high-performance liquid chromatography (UHPLC) system coupled to a Waters Vion mass spectrometer (Waters, Elstree, UK). Separation of analytes was achieved used an Accucore Vanquish C18+ column (1.5 µm, 50 x 2.1 mm) at a temperature of 40°C and a binary mobile phase gradient at a flow rate of 0.4 mL/min. Initial LC conditions for SSA 1-4 comprised 66% solvent A (0.1% formic acid + 5 mM ammonium acetate in water), 33% solvent B (0.1% formic acid + 5 mM ammonium acetate in methanol); this was ramped to 63% B at 1.8 min and 95% B at 1.9 min, held for 0.5 min and then immediately returned to initial conditions and held for the remaining 0.5 min of the method. Initial LC conditions for SSA 5-10 comprised 54% solvent A (0.1% formic acid + 5 mM ammonium acetate in water), 46% solvent B (0.1% formic acid + 5 mM ammonium acetate in methanol); this was ramped to 67% B at 1.8 min and 95% B at 1.9 min, held for 0.5 min and then immediately returned to initial conditions and held for the remaining 0.5 min of the method.
Sample analysis was by electrospray ionisation in negative ion mode. The capillary voltage was 2.5 kV, desolvation gas was 600°C.
For the purpose of PK determination of SSA 5, samples were analysed using a Waters I-Class ultra-high-performance liquid chromatography (UHPLC) system coupled to a Waters Xevo TQ-XS mass spectrometer. Separation of analytes was achieved using an Accucore Vanquish C18+ column (1.5 µm, 50 x 2.1 mm) at a temperature of 40°C and a binary mobile phase gradient at a flow rate of 0.4 mL/min. Initial LC conditions comprised 54% solvent A (0.1% formic acid + 5 mM ammonium acetate in water), 46% solvent B (0.1% formic acid + 5 mM ammonium acetate in methanol); this was ramped to 67% B at 1.8 min and 95% B at 1.9 min, held for 0.5 min and then immediately returned to initial conditions and held for the remaining 0.5 min of the method. Sample analysis was by electrospray ionisation combined with multiple reaction monitoring in negative ion mode. The […]
Mean blood concentration-time profile: Within these studies SSAs 3 and 5 were dosed at 1 mg/kg, to female CD-1 mice (n=9 per SSA) via an intravenous tail vein bolus dose formulation as solutions in 2 % DMSO/98 % water. Blood taken from the mouse tail vein was extracted by protein precipitation.
SSA concentrations were calculated through UPLC-MS/MS techniques, with tolbutamide as the internal standard. The assay met the acceptance criteria with >7 calibration standards within ± 20% of nominal concentration. The lower limit of quantitation was 2 ng/mL for both compounds. PK […]

[1] = % SSA recovered from the assay after 2 hours

- Recovery (A-B) [1]: 99%
- Recovery (B-A) [1]: 98%
- Papp (B-A) (Caco-2, 10 uM, 120 minutes, n = 2 technical repeats): 5.6 ×10⁻⁶ cm/s
- Papp (B-A) class (Caco-2, in words): moderate
SMILES: O=C(NCS(=O)(=O)O)Nc1ccc(C(F)(F)F)cc1 [SSA 3]
